Legend:
[1] = test system: Murine L1210 leukemia cells; assay: Polyamine determinations (HPLC) in cultured cells treated with DFMO or DFMO analogs; assay type: cell-based; parameters: PUT (amount): unit not given beside the values; SPD (amount) / SPM (amount) / [PUT] (concentration) / [SPD] (concentration) / [SPM] (concentration) / 48 hr avg put / 48 hr avg spd: unit not given here; conditions: for 24 hr avg put / 24 hr avg spd / 24 hr avg spm / 48 hr avg put / 48 hr avg spd / 48 hr avg spm: average of 10, 50, 100 uM treatments; for 24 hr avg put / 24 hr avg spd / 24 hr avg spm: 24 hour treatment
Method: Cell Growth. […] After 24 or 48 h, cells were removed from tubes for counting and viability determinations. Cell number was determined by electronic particle counting (Model 2F Coulter Counter; Coulter Electron-ics, Hialeah, Fla.) and confirmed periodically with hemocytometer measurements. […] The percentage of control growth was determined as follows. Cell samples were washed twice in cold PBS, and an aliquot of […] was removed for polyamine determination. The cells were pelleted, and the PBS supernatant was carefully removed with a cotton swab. […] The supernatant was frozen at -20° C. until analysis by HPLC. […] The column temperature was maintained at 65° C. with water from a circulating bath. The column was eluted at a flow rate of 16 ml/h with an initial column pressure of 500 psi which decreased with increasing ionic strength of the elution buffer. […] The column was reequilibrated for 10 min with Buffer 1 prior to loading the next sample. The column eluate was derivatized with 0.05% o-phthalaldehyde (Durrum Chemical Corp.) in 0.4M borate buffer (pH 10.4) containing […] and 0.09% Brij 35. The o-phthalaldehyde reagent flow rate was 8 ml/h. The derivatized eluate was analyzed for polyamine content by passing it through the flow cell of a […] (Fluoro-Monitor; American Instrument Co., Silver Spring, Md.) with a fixed excitation wavelength of 360 nm and emission wavelength of […]. Data were analyzed using a Hewlett Packard Model […] automation system.

α-synuclein = α-synuclein (Homo sapiens, UniProt P37840); conditions: in vitro system, exogenously added (Antony 2003); cited from earlier work
[2] = 10 uM treatment, 24 hr treatment
[3] = 10 uM treatment, 48 hour treatment
[4] = 50 uM treatment, 24 hr treatment
[5] = 50 uM treatment, 48 hour treatment
[6] = 100 uM treatment, 24 hr treatment
[7] = 100 uM treatment, 48 hour treatment

CCOC(=O)C(N)(CCCN)C(F)F (stereo not shown) [DFMO Analog 1]
PUT (amount) [1, 2]: 14507 | SPD (amount) [1, 2]: 1202403 | SPM (amount) [1, 2]: 149654 | [PUT] (concentration) [1, 2]: 0.007061 | [SPD] (concentration) [1, 2]: 0.2484 | [SPM] (concentration) [1, 2]: 0.4836 | PUT (amount) [1, 3]: 43116 | SPD (amount) [1, 3]: 1887299 | SPM (amount) [1, 3]: 2659801 | [PUT] (concentration) [1, 3]: 0.02099 | [SPD] (concentration) [1, 3]: 2.316 | [SPM] (concentration) [1, 3]: 8.595 | SPD (amount) [1, 4]: 163914 | SPM (amount) [1, 4]: 168544 | [PUT] (concentration) [1, 4]: 0 | [SPD] (concentration) [1, 4]: 0.2012 | [SPM] (concentration) [1, 4]: 0.5447 | PUT (amount) [1, 5]: 23355 | SPD (amount) [1, 5]: 1774662 | SPM (amount) [1, 5]: 4106905 | [PUT] (concentration) [1, 5]: 0.01137 | [SPD] (concentration) [1, 5]: 2.178 | [SPM] (concentration) [1, 5]: 13.27 | SPD (amount) [1, 6]: 377626 | SPM (amount) [1, 6]: 500166 | [SPD] (concentration) [1, 6]: 0.4635 | [SPM] (concentration) [1, 6]: 1.616 | SPD (amount) [1, 7]: 332304 | SPM (amount) [1, 7]: 1568383 | [PUT] (concentration) [1, 7]: 0 | [SPD] (concentration) [1, 7]: 0.4078 | [SPM] (concentration) [1, 7]: 5.068 | 24 hr avg put [1]: 0.002354 | 24 hr avg spd [1]: 0.3043 | 24 hr avg spm [1]: 0.8815 | 48 hr avg put ([1]; 48 hour treatment): 0.01078 | 48 hr avg spd ([1]; 48 hour treatment): 1.634 | 48 hr avg spm ([1]; 48 hour treatment): 8.978

CCOC(=O)C(CCCNC(=O)OC)(NC(=O)OC)C(F)F (stereo not shown) [DFMO Analog 2]
PUT (amount) [1, 2]: 56963 | SPD (amount) [1, 2]: 651020 | SPM (amount) [1, 2]: 481606 | [PUT] (concentration) [1, 2]: 0.02773 | [SPD] (concentration) [1, 2]: 0.799 | [SPM] (concentration) [1, 2]: 1.556 | PUT (amount) [1, 3]: 124533 | SPD (amount) [1, 3]: 3898235 | SPM (amount) [1, 3]: 4032041 | [PUT] (concentration) [1, 3]: 0.06062 | [SPD] (concentration) [1, 3]: 4.784 | [SPM] (concentration) [1, 3]: 13.03 | PUT (amount) [1, 4]: 379546 | SPD (amount) [1, 4]: 3615812 | SPM (amount) [1, 4]: 2470785 | [PUT] (concentration) [1, 4]: 0.1847 | [SPD] (concentration) [1, 4]: 4.438 | [SPM] (concentration) [1, 4]: 7.985 | PUT (amount) [1, 5]: 34544 | SPD (amount) [1, 5]: 848798 | SPM (amount) [1, 5]: 693740 | [PUT] (concentration) [1, 5]: 0.01681 | [SPD] (concentration) [1, 5]: 1.042 | [SPM] (concentration) [1, 5]: 2.242 | PUT (amount) [1, 6]: 27933 | SPD (amount) [1, 6]: 323941 | SPM (amount) [1, 6]: 212917 | [PUT] (concentration) [1, 6]: 0.0136 | [SPD] (concentration) [1, 6]: 0.3976 | [SPM] (concentration) [1, 6]: 0.6881 | PUT (amount) [1, 7]: 7198 | SPD (amount) [1, 7]: 231781 | SPM (amount) [1, 7]: 236426 | [PUT] (concentration) [1, 7]: 0.003504 | [SPD] (concentration) [1, 7]: 0.2845 | [SPM] (concentration) [1, 7]: 0.764 | 24 hr avg put [1]: 0.07535 | 24 hr avg spd [1]: 1.878 | 24 hr avg spm [1]: 3.41 | 48 hr avg put ([1]; 48 hour treatment): 0.02698 | 48 hr avg spd ([1]; 48 hour treatment): 2.037 | 48 hr avg spm ([1]; 48 hour treatment): 5.345

NCCC[C@](N)(C(=O)O)C(F)F [DFMO, α-difluoromethylornithine, reference compound]
PUT (amount) [1, 2]: 63429 | SPD (amount) [1, 2]: 2369255 | SPM (amount) [1, 2]: 2363841 | [PUT] (concentration) [1, 2]: 0.03087 | [SPD] (concentration) [1, 2]: 2.908 | [SPM] (concentration) [1, 2]: 7.639 | SPD (amount) [1, 3]: 254356 | SPM (amount) [1, 3]: 373610 | [PUT] (concentration) [1, 3]: 0 | [SPD] (concentration) [1, 3]: 0.3122 | [SPM] (concentration) [1, 3]: 1.207 | SPD (amount) [1, 4]: 542711 | SPM (amount) [1, 4]: 1315606 | [PUT] (concentration) [1, 4]: 0 | [SPD] (concentration) [1, 4]: 0.6661 | [SPM] (concentration) [1, 4]: 4.251 | SPD (amount) [1, 5]: 44007 | SPM (amount) [1, 5]: 482723 | [PUT] (concentration) [1, 5]: 0 | [SPD] (concentration) [1, 5]: 0.05401 | [SPM] (concentration) [1, 5]: 1.56 | SPD (amount) [1, 6]: 42842 | SPM (amount) [1, 6]: 98016 | [PUT] (concentration) [1, 6]: 0 | [SPD] (concentration) [1, 6]: 0.05258 | [SPM] (concentration) [1, 6]: 0.3167 | SPD (amount) [1, 7]: 220260 | SPM (amount) [1, 7]: 7071485 | [PUT] (concentration) [1, 7]: 0 | [SPD] (concentration) [1, 7]: 0.2703 | [SPM] (concentration) [1, 7]: 22.85 | 24 hr avg put [1]: 0.01029 | 24 hr avg spd [1]: 1.209 | 24 hr avg spm [1]: 4.069 | 48 hr avg put ([1]; 48 hour treatment): 0 | 48 hr avg spd ([1]; 48 hour treatment): 0.2122 | 48 hr avg spm ([1]; 48 hour treatment): 8.54

NCCCCNCCCN [spermidine]
aggregation of α-synuclein (α-synuclein): accelerate

From patent US20120129939A1, “POLYAMINE INHIBITORS FOR THE TREATMENT AND PREVENTION OF PARKINSON'S DISEASE” (priority 2009, published 2012)
